Reference: patent publication US20230082989A1, “DEVICES AND METHODS FOR TREATING CANCER AND CARDIAC WASTING” (Nazzano Devices Limited, priority 2020, published 2023)

Key:
Assay type in all cases: in vivo, human
[1] = system: patients with advanced cancer; assay: Prospective study of ivabradine in advanced cancer patients: heart rate; settings: 4 cancer patients, no known heart failure, LVEF>50%, heart rate >70 bpm; Ivabradine starting dose 5 mg twice a day; reduced from 104.5±10.4 bpm
Excerpt: In this study an effect of a use of a heart drug in advanced cancer was studied. In some cases, a heart drug can comprise ivabradine. In some cases, ivabradine can be a selective antagonist of myocardial If (funny) channels. […] In some cases, ivabradine can provide pure heart rate reduction, reducing a diastolic depolarization slope, without altering other cardiac and hemodynamic parameters. In some cases, ivabradine can be effective for a treatment of an ischemic heart disease. In some cases, ivabradine can reduce episodes of both symptomatic angina pectoris and myocardial ischemia, and in heart failure where it can reduce mortality and morbidity. In some cases, it may only be approved or recommended for treatment of these two conditions. In some cases, ivabradine may have never been recommended for a treatment of a cancer patient. Disclosed herein in some embodiments, are methods in which ivabradine can be administered for a treatment of a cancer patient.
In this study 4 cancer patients with no known heart failure and with normal left ventricular function (LEF>50%) were studied. […]

[2] = system: patients with advanced cancer; assay: Quality of life by Minnesota Living with Heart Failure Questionnaire (MLHFQ), ivabradine study; settings: N=4, LVEF>50%; total score range 0-105, lower = better QoL, <24 good QoL
Excerpt: N=4, LVEF>50%. […] MLHFQ has a total score range of 0-105. A lower score indicated a better QoL, with a score of <24 indicating good QoL, scores from 24 to […] indicating moderately impaired QoL, scores >45 indicating low QoL.
(§1) In this study 4 cancer patients with no known heart failure and with normal left ventricular function (LEF>50%) were studied. They all had histologically confirmed diagnoses of cancer (see table 1), and all suffered poor quality of life, with three showing a Karnofksy performance score of 70-80% (indicating an inability to carry on normal activity or to do active work) and one showing a Karnofksy performance score of 50-60% (indicating a need for considerable assistance and frequent medical care). […] All were given Ivabradine at a starting dose of 5 mg twice a day. Heart rate was reduced in all patients from 104.5±10.4 bpm to 77.0±10.9 bpm. […] The questionnaires are the Minnesota Living with Heart Failure Questionnaire (MLHFQ) (see FIG. 15) and the Kansas City Cardiomyopathy Questionnaire (KCCQ) (see FIG. 14). In the […] indicate a better quality of life and in the MLWHFQ lower scores indicate a better quality of life. The two figures show the clinically important improvement in symptoms and quality of life achieved in these patient by the use of the heart failure drug Ivabradine.

[3] = system: patients with advanced cancer; assay: Quality of life by Kansas City Cardiomyopathy Questionnaire (KCCQ), ivabradine study
Excerpt: N=4, LVEF>50%. A 5 unit increase was considered a clinically meaningful change. […] The KCCQ score range is 0-100, with higher scores indicating better QoL, and improvements of ≥5 indicated clinically important changes.
as §1

COc1cc2c(cc1OC)CC(=O)N(CCCN(C)C[C@H]1Cc3cc(OC)c(OC)cc31)CC2 [Ivabradine]
Heart rate on ivabradine [1]: 77.0±10.9 bpm
MLHFQ score, baseline to follow-up [2]: improvements from baseline to follow-up, with good QoL at follow-up
Symptoms (breathlessness, fatigue) by MLHFQ and KCCQ symptom scores ([3]; 4 cancer patients, addition of ivabradine 5 mg twice a day starting dose): importantly improved symptoms
KCCQ score improvement from baseline to follow up ([3]; N=4, LVEF>50%, score range 0-100, higher = better QoL, improvement ≥5 clinically important): ≥ 5
